Patent US6479435B1, “Diaryl ethers and processes for their preparation and herbicidal and desiccant compositions containing them” (ISK Americas Incorporated, priority 1997, dated 2002)

Legend:
Type in all cases: in vivo
[1] = tested on: lambsquarters (Chenopodium album, CHEAL); test: Post-emerge greenhouse herbicide test, phytotoxicity rating; conditions: 14 days after application; for phytotoxicity rating CHEAL: scale 0-100
In short: (§1)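 Scores use a 0 (no damage) to 100 (complete kill) scale, taken 14 days after a foliar spray. Acetone solutions with 0.25% v/v non-ionic surfactant were applied by track sprayer at 187 l/ha and 63-1000 g ai/ha to bottom-watered 2-3 leaf plants.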

[2] = tested on: large crabgrass (Digitaria sanguinalis, DIGSA); test: as above; conditions: 14 days after application; for phytotoxicity rating DIGSA: scale 0-100
In short: as §1

[3] = tested on: barnyardgrass (Echinochloa crusgalli, ECHCG); test: as above; conditions: 14 days after application; for phytotoxicity rating ECHCG: scale 0-100
In short: as §1

[4] = tested on: ivyleaf morningglory (Ipomoea hederacea, IPOHE); test: as above; conditions: 14 days after application; for phytotoxicity rating IPOHE: scale 0-100
In short: as §1

[5] = tested on: velvetleaf (Abutilon theophrasti, ABUTH); test: as above; conditions: 14 days after application; for phytotoxicity rating ABUTH: scale 0-100
In short: as §1

[6] = tested on: sicklepod (Cassia obtusifolia, CASOB); test: as above; conditions: 14 days after application; for phytotoxicity rating CASOB: scale 0-100
In short: as §1

[7] = tested on: green foxtail (Setaria viridis, SETVI); test: as above; conditions: 14 days after application; for phytotoxicity rating SETVI: scale 0-100
In short: as §1

[8] = tested on: Johnsongrass (Sorghum halepense, SORHA); test: as above; conditions: 14 days after application; for phytotoxicity rating SORHA: scale 0-100
In short: as §1

[9] = tested on: redroot pigweed (Amaranthus retroflexus, AMARE); test: as above; conditions: 14 days after application; for phytotoxicity rating AMARE: scale 0-100
In short: as §1

[10] = tested on: lambsquarters (Chenopodium album, CHEAL); test: Pre-emerge greenhouse herbicide test, phytotoxicity rating; conditions: 14 days after application, rating scale 0-100
In short: (§2)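 Visual 0–100 injury rating (100 = all plants dead) taken 14 days after treatment. Rates of 125–1000 g ai/ha in acetone, 187 l/ha, were sprayed onto soil one day post-sowing; pots were surface-watered to incorporate, then bottom-watered.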

[11] = tested on: large crabgrass (Digitaria sanguinalis, DIGSA); test: as above; conditions: 14 days after application, rating scale 0-100
In short: as §2

[12] = tested on: barnyardgrass (Echinochloa crusgalli, ECHCG); test: as above; conditions: 14 days after application, rating scale 0-100
In short: as §2

[13] = tested on: ivyleaf morningglory (Ipomoea hederacea, IPOHE); test: as above; conditions: 14 days after application, rating scale 0-100
In short: as §2

[14] = tested on: velvetleaf (Abutilon theophrasti, ABUTH); test: as above; conditions: 14 days after application, rating scale 0-100
In short: as §2

[15] = tested on: common ragweed (Ambrosia artemisiifolia L., AMBEL); test: as above; conditions: 14 days after application, rating scale 0-100
In short: as §2

[16] = tested on: sicklepod (Cassia obtusifolia, CASOB); test: as above; conditions: 14 days after application, rating scale 0-100
In short: as §2

[17] = tested on: green foxtail (Setaria viridis, SETVI); test: as above; conditions: 14 days after application, rating scale 0-100
In short: as §2

[18] = tested on: Johnsongrass (Sorghum halepense, SORHA); test: as above; conditions: 14 days after application, rating scale 0-100
In short: as §2

[19] = tested on: redroot pigweed (Amaranthus retroflexus, AMARE); test: as above; conditions: 14 days after application, rating scale 0-100
In short: as §2

[20] = tested on: common ragweed (Ambrosia artemisiifolia L., AMBEL); test: Post-emerge greenhouse herbicide test, phytotoxicity rating; conditions: 14 days after application; for phytotoxicity rating AMBEL: scale 0-100
Description: A standard greenhouse herbicide activity screening system was used to evaluate the herbicidal efficacy and crop safety of these test compounds. Six broadleaf weed species including redroot pigweed (Amaranthus retroflexus, AMARE), velvetleaf (Abutilon theophrasti, ABUTH), sicklepod (Cassia obtusifolia, CASOB), ivyleaf morningglory (Ipomoea hederacea, IPOHE), lambsquarters (Chenopodium album, CHEAL) and common ragweed (Ambrosia artemisiifolia L., AMBEL) were used as test species. Four grass weed species including green foxtail (Setaria viridis, SETVI), barnyardgrass (Echinochloa crusgalli, ECHCG), Johnsongrass (Sorghum halepense, SORHA), and large crabgrass (Digitaria sanguinalis, DIGSA) were also used. In addition, three crop species, field corn (Zea mays L., var. Dekalb 535, CORN), soybean (Glycine max L., var. Pella 86, SOY), and upland rice (Oryza sp., var.Tebonnet, RICE) were included.
All test compounds were dissolved in acetone and applied to the test units in a volume of 187 l/ha. […] Plants were arranged on a shelf so that the top of the canopy (post-emerge) or top of the soil surface (pre-emerge) was 40-45 cm below the nozzle. Pressurized air was used to force the test solution through the nozzle as it was mechanically advanced (via electrically driven chain drive) over the top of all test plants/pots. This application simulates a typical commercial field herbicide application.
In the post-emerge test, a commercial non-ionic surfactant was also included (0.25% v/v) to enhance wetting of the leaf surfaces Qf target plants at rates ranging from 63 g ai/ha to 1000 g ai/ha. For post-emerge tests, seeds were planted 8-21 days prior to the test to allow emergence and good foliage development prior to application of the test substances. At the time of the post-emerge application, plants of all species were usually at the 2-3 leaf stage of development. Post-emerge test units were always bottom-watered.
At 14 days after application of the test materials, phytotoxicity ratings were recorded. A rating scale of 0-100 was used as previously described in Research Methods in Weed Science, 2nd edition, B. Truelove, Ed., Southern Weed Science Society, Auburn University, Auburn, Ala., 1977. Briefly, “0” corresponds to no damage and “100” corresponds to complete death of all plants in the test unit. This scale was used both to determine efficacy against weed species and damage to crop species. Herbicide activity data for various compounds of this invention, which are shown by compound number in Tables 1-9, are shown in Tables 13 and 14.

[21] = tested on: upland rice (Oryza sp., var.Tebonnet, RICE); test: Pre-emerge greenhouse test, crop damage rating; conditions: 14 days after application, rating scale 0-100
In short: as §2

[22] = tested on: field corn (Zea mays L., var. Dekalb 535, CORN); test: Pre-emerge greenhouse test, crop damage rating; conditions: 14 days after application, rating scale 0-100
In short: as §2

[23] = tested on: soybean (Glycine max L., var. Pella 86, SOY); test: Post-emerge greenhouse test, crop damage rating; design: key to crop damage rating SOY: 0-100 scale: 0 = no damage, 100 = complete death of all plants; conditions: 14 days after application, scale 0-100
In short: as §1

[24] = tested on: upland rice (Oryza sp., var.Tebonnet, RICE); test: Post-emerge greenhouse test, crop damage rating; conditions: 14 days after application, scale 0-100
In short: as §1

[25] = tested on: field corn (Zea mays L., var. Dekalb 535, CORN); test: Post-emerge greenhouse test, crop damage rating; conditions: 14 days after application, scale 0-100
In short: as §1

[26] = tested on: soybean (Glycine max L., var. Pella 86, SOY); test: Pre-emerge greenhouse test, crop damage rating; design: key to SOY crop damage rating: 0 = no damage, 100 = complete death of all plants; conditions: 14 days after application, rating scale 0-100
In short: as §2

COc1nc(OC)nc(Oc2cc(-c3nn(C)c(C(F)(F)F)c3Cl)c(F)cc2Cl)n1 [Compound 1-8, 4-chloro-3-(4-chloro-2-fluoro-5-(4,6-dimethoxy-2-triazinyloxy)phenyl)-1-methyl-5-trifluoromethyl-1H-pyrazole]
CHEAL phytotoxicity rating (0-100) ([1]; 63 g al/ha): 0 | CHEAL phytotoxicity rating (0-100) ([1]; 500 g al/ha): 95 | DIGSA phytotoxicity rating (0-100) ([2]; 63 g al/ha): 0 | DIGSA phytotoxicity rating (0-100) ([2]; 500 g al/ha): 20 | ECHCG phytotoxicity rating (0-100) ([3]; 63 g al/ha): 0 | ECHCG phytotoxicity rating (0-100) ([3]; 500 g al/ha): 0 | IPOHE phytotoxicity rating (0-100) ([4]; 63 g al/ha): 10 | IPOHE phytotoxicity rating (0-100) ([4]; 500 g al/ha): 80 | ABUTH phytotoxicity rating (0-100) ([5]; 63 g al/ha): 0 | ABUTH phytotoxicity rating (0-100) ([5]; 500 g al/ha): 35 | CASOB phytotoxicity rating (0-100) ([6]; 63 g al/ha): 0 | CASOB phytotoxicity rating (0-100) ([6]; 500 g al/ha): 10 | SETVI phytotoxicity rating (0-100) ([7]; 63 g al/ha): 50 | SETVI phytotoxicity rating (0-100) ([7]; 500 g al/ha): 20 | SORHA phytotoxicity rating (0-100) ([8]; 63 g al/ha): 0 | SORHA phytotoxicity rating (0-100) ([8]; 500 g al/ha): 10 | AMARE phytotoxicity rating (0-100) ([9]; 63 g al/ha): 20 | AMARE phytotoxicity rating (0-100) ([9]; 500 g al/ha): 100 | phytotoxicity rating CHEAL ([10]; 125 g ai/ha): 0 | phytotoxicity rating CHEAL ([10]; 500 g ai/ha): 100 | phytotoxicity rating DIGSA ([11]; 125 g ai/ha): 20 | phytotoxicity rating DIGSA ([11]; 500 g ai/ha): 90 | phytotoxicity rating ECHCG ([12]; 125 g ai/ha): 0 | phytotoxicity rating ECHCG ([12]; 500 g ai/ha): 0 | phytotoxicity rating IPOHE ([13]; 125 g ai/ha): 0 | phytotoxicity rating IPOHE ([13]; 500 g ai/ha): 0 | phytotoxicity rating ABUTH ([14]; 125 g ai/ha): 0 | phytotoxicity rating ABUTH ([14]; 500 g ai/ha): 20 | phytotoxicity rating AMBEL ([15]; 125 g ai/ha): 0 | phytotoxicity rating AMBEL ([15]; 500 g ai/ha): 10 | phytotoxicity rating CASOB ([16]; 125 g ai/ha): 0 | phytotoxicity rating CASOB ([16]; 500 g ai/ha): 0 | phytotoxicity rating SETVI ([17]; 125 g ai/ha): 50 | phytotoxicity rating SETVI ([17]; 500 g ai/ha): 100 | phytotoxicity rating SORHA ([18]; 125 g ai/ha): 0 | phytotoxicity rating SORHA ([18]; 500 g ai/ha): 35 | phytotoxicity rating AMARE ([19]; 125 g ai/ha): 70 | phytotoxicity rating AMARE ([19]; 500 g ai/ha): 100 | AMBEL phytotoxicity rating (0-100) ([20]; 63 g al/ha): 0 | AMBEL phytotoxicity rating (0-100) ([20]; 500 g al/ha): 10

CCOC(=O)C(C)Oc1ccc(Oc2cc(-n3c(=O)n4n(c3=O)CCCC4)c(F)cc2Cl)c([N+](=O)[O-])c1 (stereo not drawn) [Compound 8-41]
RICE crop damage rating ([21]; Rate 125 g al/ha): 0 | RICE crop damage rating ([21]; Rate 250 g al/ha): 0 | CORN crop damage rating ([22]; Rate 125 g al/ha): 0 | CORN crop damage rating ([22]; Rate 250 g al/ha): 0 | phytotoxicity rating CHEAL ([1]; rate 63 g ai/ha): 40 | phytotoxicity rating CHEAL ([1]; rate 250 g ai/ha): 50 | phytotoxicity rating DIGSA ([2]; rate 63 g ai/ha): 0 | phytotoxicity rating DIGSA ([2]; rate 250 g ai/ha): 0 | phytotoxicity rating ECHCG ([3]; rate 63 g ai/ha): 0 | phytotoxicity rating ECHCG ([3]; rate 250 g ai/ha): 0 | phytotoxicity rating IPOHE ([4]; rate 63 g ai/ha): 30 | phytotoxicity rating IPOHE ([4]; rate 250 g ai/ha): 100 | phytotoxicity rating ABUTH ([5]; rate 63 g ai/ha): 95 | phytotoxicity rating ABUTH ([5]; rate 250 g ai/ha): 100 | phytotoxicity rating CASOB ([6]; rate 63 g ai/ha): 30 | phytotoxicity rating CASOB ([6]; rate 250 g ai/ha): 100 | phytotoxicity rating SETVI ([7]; rate 63 g ai/ha): 0 | phytotoxicity rating SETVI ([7]; rate 250 g ai/ha): 0 | phytotoxicity rating SORHA ([8]; rate 63 g ai/ha): 0 | phytotoxicity rating SORHA ([8]; rate 250 g ai/ha): 0 | phytotoxicity rating AMARE ([9]; rate 63 g ai/ha): 40 | phytotoxicity rating AMARE ([9]; rate 250 g ai/ha): 40 | crop damage rating SOY ([23]; rate 63 g ai/ha): 30 | crop damage rating SOY ([23]; rate 250 g ai/ha): 60 | CHEAL phytotoxicity rating ([10]; Rate 125 g al/ha): 70 | CHEAL phytotoxicity rating ([10]; Rate 250 g al/ha): 90 | DIGSA phytotoxicity rating ([11]; Rate 125 g al/ha): 0 | DIGSA phytotoxicity rating ([11]; Rate 250 g al/ha): 0 | ECHCG phytotoxicity rating ([12]; Rate 125 g al/ha): 0 | ECHCG phytotoxicity rating ([12]; Rate 250 g al/ha): 0 | IPOHE phytotoxicity rating ([13]; Rate 125 g al/ha): 0 | IPOHE phytotoxicity rating ([13]; Rate 250 g al/ha): 0 | ABUTH phytotoxicity rating ([14]; Rate 125 g al/ha): 0 | ABUTH phytotoxicity rating ([14]; Rate 250 g al/ha): 70 | CASOB phytotoxicity rating ([16]; Rate 125 g al/ha): 0 | CASOB phytotoxicity rating ([16]; Rate 250 g al/ha): 0 | SETVI phytotoxicity rating ([17]; Rate 125 g al/ha): 10 | SETVI phytotoxicity rating ([17]; Rate 250 g al/ha): 50 | SORHA phytotoxicity rating ([18]; Rate 125 g al/ha): 0 | SORHA phytotoxicity rating ([18]; Rate 250 g al/ha): 0 | AMARE phytotoxicity rating ([19]; Rate 125 g al/ha): 80 | AMARE phytotoxicity rating ([19]; Rate 250 g al/ha): 100 | phytotoxicity rating AMBEL ([20]; rate 63 g ai/ha): 00 | phytotoxicity rating AMBEL ([20]; rate 250 g ai/ha): 30 | crop damage rating RICE ([24]; rate 63 g ai/ha): 0 | crop damage rating RICE ([24]; rate 250 g ai/ha): 0 | crop damage rating CORN ([25]; rate 63 g ai/ha): 0 | crop damage rating CORN ([25]; rate 250 g ai/ha): 0 | SOY crop damage rating ([26]; Rate 125 g al/ha): 0 | SOY crop damage rating ([26]; Rate 250 g al/ha): 0
